# PubChem BioAssay (NCI)
#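 1) Cells in 96-well plates. 2) Compound, 48 h, 5 concentrations. 3) Linear interpolation between surrounding doses. 4) Unreached endpoint = highest concentration. Abbreviation: GI50, concentration required for 50% inhibition of growth. TGI marks complete inhibition of growth.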
# Columns and labels:
# Experiment in all cases: DTP human tumour cell line panel, 48 h
# OVCAR-8 ovarian = test system: OVCAR-8 ovarian
# OVCAR-3 ovarian = test system: OVCAR-3 ovarian
# SR leukemia = test system: SR leukemia
# SN12C renal = test system: SN12C renal
# SK-MEL-2 melanoma = test system: SK-MEL-2 melanoma
# LOX IMVI melanoma = test system: LOX IMVI melanoma
# CCRF-CEM leukemia = test system: CCRF-CEM leukemia
# OVCAR-5 ovarian = test system: OVCAR-5 ovarian
# T-47D breast = test system: T-47D breast
# RPMI-8226 leukemia = test system: RPMI-8226 leukemia
Compound,TGI (OVCAR-8 ovarian),TGI (OVCAR-3 ovarian),TGI (SR leukemia),TGI (SN12C renal),TGI (SK-MEL-2 melanoma),TGI (LOX IMVI melanoma),TGI (CCRF-CEM leukemia),TGI (OVCAR-5 ovarian),TGI (T-47D breast),TGI (RPMI-8226 leukemia),GI50 (OVCAR-5 ovarian)
CC(=O)Oc1ccn2nc(C)c(Br)c2c1,> 100 µM,> 100 µM,> 100 µM,> 100 µM,> 100 µM,> 100 µM,> 100 µM,> 100 µM,> 100 µM,,
COc1ccc([C@]23CCC4(OCC(C)(C)CO4)[C@H]4CON(O[C@H](O[C@@H]5CCCCC5C(C)(C)c5ccccc5)C2)[C@@H]43)cc1OC (stereo partly drawn),> 100 µM,> 100 µM,49.4 µM,> 100 µM,> 100 µM,> 100 µM,> 100 µM,> 100 µM,> 100 µM,> 100 µM,
O=C(c1ccc([N+](=O)[O-])cc1)N1CCCC1,> 100 µM,> 100 µM,> 100 µM,> 100 µM,,> 100 µM,> 100 µM,> 100 µM,> 100 µM,> 100 µM,
CCn1ncc2c(=O)n3ncn(-c4ccc(Br)cc4)c3nc21,> 100 µM,> 100 µM,> 100 µM,> 100 µM,> 100 µM,,> 100 µM,> 100 µM,> 100 µM,> 100 µM,
CS(=O)(=O)Nc1ccc2ccccc2c1,> 100 µM,> 100 µM,> 100 µM,> 100 µM,> 100 µM,> 100 µM,> 100 µM,> 100 µM,> 100 µM,> 100 µM,
CCOC(=O)C(NC(=O)c1cccc(Cl)c1)(Nc1cccc(C)c1)C(F)(F)F (stereo not drawn),61 µM,,> 100 µM,50.8 µM,31.8 µM,30.7 µM,> 100 µM,,54.5 µM,> 100 µM,
N#CCCN(CCC#N)c1ccc(C(N=Nc2ccccc2)=Nc2ccc(F)cc2)cc1,> 100 µM,> 100 µM,> 100 µM,> 100 µM,> 100 µM,,,> 100 µM,> 100 µM,> 100 µM,
CNC(=S)N1CCN(C(C)=O)C1=S,> 100 µM,> 100 µM,> 100 µM,> 100 µM,5.36 µM,> 100 µM,> 100 µM,> 100 µM,90.7 µM,,
c1ccc2c(c1)cc1ccc3cccc4ccc2c1c34,> 100 µM,> 100 µM,> 100 µM,> 100 µM,> 100 µM,> 100 µM,> 100 µM,> 100 µM,> 100 µM,> 100 µM,> 100 µM
CC1=C(C(=O)OCCO[N+](=O)[O-])C(c2ccccc2[N+](=O)[O-])C(C(=O)OC(C)C)=C(C)N1 (stereo not drawn),63.7 µM,27.9 µM,> 100 µM,34.9 µM,30.5 µM,32.3 µM,> 100 µM,30.4 µM,46.8 µM,> 100 µM,
COc1cc2c(c(OC)c1)[C@H](C)N(Cc1ccccc1)C(C)C2 (stereo partly drawn),> 100 µM,,> 100 µM,> 100 µM,,> 100 µM,> 100 µM,,> 100 µM,> 100 µM,
Cc1nc2c(=O)n(-c3ccccc3)c(=O)n(-c3ccccc3)c2o1,> 100 µM,> 100 µM,> 100 µM,> 100 µM,> 100 µM,> 100 µM,> 100 µM,> 100 µM,> 100 µM,> 100 µM,
CC[C@H](NC(=O)OC(C)(C)C)C(=O)NCP(=O)(OCc1ccc([N+](=O)[O-])cc1)OCc1ccc([N+](=O)[O-])cc1,> 100 µM,> 100 µM,> 100 µM,> 100 µM,> 100 µM,> 100 µM,> 100 µM,> 100 µM,> 100 µM,> 100 µM,
CC1=NN2C(=N)/C(=C/c3ccc(F)cc3)C(=O)N=C2S1,> 100 µM,> 100 µM,> 100 µM,> 100 µM,> 100 µM,> 100 µM,> 100 µM,> 100 µM,> 100 µM,> 100 µM,
N#C/C(C(=O)NCc1ccccc1)=C(/N)N1CCCC1,> 100 µM,> 100 µM,> 100 µM,> 100 µM,> 100 µM,> 100 µM,> 100 µM,> 100 µM,> 100 µM,> 100 µM,
C=C1C[C@@H]2O[C@H]3[C@H]4[C@@H](C[C@@H](C)[C@@H](OC(C)=O)[C@H]42)[C@@H](C)CO[C@@]3(C)[C@H](OC(=O)CCCCCCC)CC1=O,30.9 µM,32 µM,37.2 µM,30.2 µM,35 µM,30.1 µM,23.8 µM,21.1 µM,31.5 µM,13.1 µM,
CC(C)=CCc1c(O)cc2oc(-c3ccc(O)cc3O)cc(=O)c2c1O,> 100 µM,51.5 µM,> 65.6 µM,> 69.1 µM,64.7 µM,59.1 µM,28.2 µM,81.3 µM,49.8 µM,41.4 µM,
CSc1ncc2c(n1)-c1ccccc1OC2NC1CC1 (stereo not drawn),> 100 µM,> 100 µM,> 100 µM,> 100 µM,> 100 µM,> 100 µM,> 100 µM,> 100 µM,91.7 µM,96.9 µM,
CCc1nc2c(c(N(C)C)c1C(=O)OC)CCc1ccccc1-2,> 100 µM,35.4 µM,32.9 µM,> 100 µM,39.5 µM,> 100 µM,9.43 µM,> 100 µM,58.1 µM,46.6 µM,
Cn1c(=O)cc(NNc2ccc(Cl)c(Cl)c2)[nH]c1=O,31 µM,28.8 µM,> 100 µM,21.2 µM,33.6 µM,28.1 µM,37.3 µM,31.5 µM,21.1 µM,,
C=C(C)[C@H]1CC23C(=O)[C@@](C)(C[C@H]2C1(C)C)C(=O)C(C(=O)C(C)C)=C3O,40.2 µM,37.7 µM,38.7 µM,32.9 µM,33.6 µM,38.9 µM,24.9 µM,40.8 µM,> 100 µM,27.9 µM,
COc1ccc(-c2cc3cc(Cl)cc(Cl)c3oc2=O)cc1OC,> 100 µM,> 100 µM,> 100 µM,> 100 µM,> 100 µM,> 100 µM,> 100 µM,> 100 µM,> 100 µM,> 100 µM,

Compound,TGI (OVCAR-8 ovarian),TGI (OVCAR-3 ovarian),TGI (SR leukemia),TGI (SN12C renal),TGI (SK-MEL-2 melanoma),TGI (LOX IMVI melanoma),TGI (CCRF-CEM leukemia),TGI (OVCAR-5 ovarian),TGI (T-47D breast),TGI (RPMI-8226 leukemia),GI50 (OVCAR-5 ovarian)
CCOC(=O)[C@@H](Cc1ccc(CCl)cc1)NC(C)=O,> 100 µM,> 100 µM,> 100 µM,49.6 µM,39.6 µM,37 µM,> 100 µM,44.2 µM,93.7 µM,88.4 µM,
CSc1ccc(/C=C2\N=C(c3ccccc3)N(c3nc4cc(Cl)c(F)cc4s3)C2=O)cc1,51.7 µM,60.1 µM,> 100 µM,> 100 µM,50.4 µM,55.6 µM,55.6 µM,> 100 µM,> 100 µM,> 100 µM,
Clc1ccc(/C(=C/c2ccccc2)Cn2ccnc2)cc1,> 100 µM,,78.4 µM,> 100 µM,40.8 µM,91.1 µM,> 100 µM,> 100 µM,> 100 µM,73.6 µM,
C[As+](C)(c1ccc(Br)c([N+](=O)[O-])c1)c1ccc(Br)c([N+](=O)[O-])c1.O=[N+]([O-])O,> 100 µM,> 100 µM,> 100 µM,> 100 µM,> 100 µM,> 100 µM,,> 100 µM,> 100 µM,> 100 µM,
OC(CC(O)(C(F)(F)Cl)C(F)(F)Cl)c1ccccc1 (stereo not drawn),> 10 µM,> 10 µM,> 10 µM,> 10 µM,> 10 µM,> 10 µM,> 10 µM,> 10 µM,> 10 µM,> 10 µM,
O=c1c2c3c(sc2nc2n1N=C(c1ccc(Br)cc1)CS2)CCCC3,> 100 µM,> 100 µM,> 100 µM,> 100 µM,,> 100 µM,> 100 µM,> 100 µM,> 100 µM,,
CC(C)=C/C(CC(O)(C(F)(F)F)C(F)(F)F)=N\O,> 100 µM,,> 100 µM,> 100 µM,,> 100 µM,> 100 µM,> 100 µM,> 100 µM,> 100 µM,
CC1(C)N=C(N)N=C(N)N1c1cccc(Cl)c1,,> 100 µM,> 100 µM,> 100 µM,> 100 µM,> 100 µM,> 100 µM,> 100 µM,> 100 µM,,
Cc1cc(S(=O)(=O)N=C2Nc3cccc4cccc(c34)N2)c(S)cc1Cl,> 100 µM,> 100 µM,> 100 µM,,> 100 µM,> 100 µM,> 100 µM,> 100 µM,> 100 µM,> 100 µM,
O=C1c2cc3c(cc2CC12Cc1ccc4c(c1C2=O)CCC4)CCC3 (stereo not drawn),> 100 µM,> 100 µM,> 100 µM,,> 100 µM,> 100 µM,> 100 µM,> 100 µM,> 100 µM,> 100 µM,
CC(=O)Oc1ccc2c(-c3ccccc3)c(Oc3ccc(Cl)cc3)c(=O)oc2c1,36.8 µM,28.8 µM,84.4 µM,39.2 µM,,36.7 µM,35.7 µM,32.4 µM,21.2 µM,> 100 µM,
CN1C2=Nc3n(c4ccccc4[n+]3C)CN2c2ccccc21,> 100 µM,34.7 µM,81.5 µM,93.7 µM,41.8 µM,,> 100 µM,> 100 µM,55.1 µM,> 100 µM,
COc1ccc2c(c1OC)C(=O)N1C2=Cc2c(cc3c(c2OC)OCO3)CC1N(C)C (stereo not drawn),> 100 µM,> 100 µM,> 100 µM,> 100 µM,> 100 µM,,> 100 µM,> 100 µM,74.4 µM,99.6 µM,
CO[P@@]1(=O)O[C@@H](c2ccccc2)[C@H](O)[C@]1(O)c1ccccc1,> 100 µM,> 100 µM,> 100 µM,> 100 µM,> 100 µM,> 100 µM,> 100 µM,,> 100 µM,> 100 µM,
Oc1ccccc1/C=N/N1C(=S)N(C23CC4CC(CC(C4)C2)C3)C(=Nc2ccccc2)C1=Nc1ccccc1,> 100 µM,> 100 µM,> 100 µM,> 100 µM,> 100 µM,,,> 100 µM,> 100 µM,> 100 µM,
C/C(=C\CSCC(N)C(=O)O)CC/C=C(\C)CNc1ccccc1 (stereo not drawn),> 100 µM,> 100 µM,> 100 µM,> 100 µM,> 100 µM,> 100 µM,,> 100 µM,> 100 µM,> 100 µM,
CC1(C)OCC(C2OC(C)(C)OC2[C@H]2O[C@@]3(O)[C@H]4[C@H](C=CC[C@@H]42)[C@@H](OCc2ccccc2)[C@H](OCc2ccccc2)[C@H]3OCc2ccccc2)O1 (stereo partly drawn),> 100 µM,> 100 µM,31.4 µM,> 100 µM,98.5 µM,> 100 µM,> 100 µM,> 100 µM,> 100 µM,,
O=C1CSC(c2c[nH]c3ccccc23)N1c1ccc(Cl)cc1Cl (stereo not drawn),> 100 µM,> 100 µM,> 100 µM,> 100 µM,,> 100 µM,> 100 µM,> 100 µM,> 100 µM,> 100 µM,
COc1ccc(C2c3cc4c(cc3OC(Nc3ccccc3)C2C)OCO4)cc1 (stereo not drawn),,> 100 µM,9.18 µM,> 100 µM,> 100 µM,> 100 µM,> 100 µM,> 100 µM,> 100 µM,> 100 µM,
Nc1c(N2CCOCC2)c(=O)nc2[nH]/c(=C\c3ccccc3O)c(=O)n12,> 100 µM,,> 100 µM,> 100 µM,,> 100 µM,> 100 µM,> 100 µM,> 100 µM,77.3 µM,
CC(C)(C)/C(O)=C\c1nc2cc(F)c(F)cc2[nH]c1=O,> 100 µM,,> 100 µM,,> 100 µM,> 100 µM,> 100 µM,,> 100 µM,,
